In brackets after ≈: the same amount, converted by molar mass. Read-outs that look alike come from different tables or passages of the source.
Tests used:
M. tuberculosis H37Rv = assay type: in vivo, BALB/c mice; settings: for effect of addition to BPaL on bactericidal activity: experiment 5; for additional reduction of lung CFU counts on addition to RZ: vs RZ; for reduction of lung CFU counts: monotherapy 300 mg/kg
[1] = Sparse plasma sampling in infected mice of the combination study (experiment 2); assay type: in vivo, mouse; settings: for Plasma AUC0–24 h: monocompartmental model, combination study; for Blood AUC0–24 h: plasma value transformed with blood/plasma ratio 1.79
Text: (§1) The calculated exposures at EDmax for GSK138 and GSK693 were obtained using the intravenous mouse PK profiles fitting to a bicompartmental model to obtain those parameters to simulate the oral whole blood exposures at EDmax. Additionally, a monocompartmental model was used to fit the experimental oral pharmacokinetic studies in non-infected mouse together with measured plasma concentrations obtained from the sparse sampling in the experiment 2 in infected mice. Parameters obtained from this fitting were used to simulate the profile after GSK693 administration at 100, 200, and 300 mg/kg in the combination study and to calculate the associated exposures (see Table 2).
Tail vein blood was collected at the indicated time points. Briefly, an incision was made in the lateral tail vein. Blood (20–50 µL) was collected in BD Microtainer PST lithium heparin tubes from each mouse. The tubes were kept on ice before being centrifuged at 8,000 rpm for 5 min. The supernatant plasma (15–30 µL) was transferred to labeled microcentrifuge tubes, frozen, and stored at −80°C and then shipped on dry ice to GSK for further analysis.
Ten microliters of plasma or blood samples thawed at ambient temperature was mixed with 200 µL of acetonitrile (ACN):MeOH (80:20). After this protein precipitation step, samples were filtered using a 0.45-µm filter plate [Multiscreen Solvinert 0.45-μm polytetrafluoroethylene (PTFE), Millipore] and then filtered using a 0.2-µm filter [AcroPrep Advance 96 Filter Plate 350 µL, 0.2-µm polytetrafluoroethylene (PTFE)] to ensure sterilization prior to LC-MS analysis.

[2] = mouse, in vivo, 10 mg/kg; cited from earlier work
[3] = tested on: drug-susceptible, MDR and XDR M.tb clinical isolates; assay: microbe, parasite or virus in culture; assay type: cell-based, M. tuberculosis; settings: drug-susceptible, MDR and XDR clinical isolates
[4] = mouse, in vivo
Text: as §1

Structure (SMILES): NNC(=O)c1ccncc1 [isoniazid, reference compound]
- effect of addition to BPaL on bactericidal activity (M. tuberculosis H37Rv; 4 weeks of treatment): significantly increased the bactericidal activity
- effect on the activity of the RZ combination (M. tuberculosis H37Rv; mouse, in vivo): did not enhance the activity

Structure (SMILES): CO[C@H]1/C=C/O[C@@]2(C)Oc3c(C)c(O)c4c(O)c(c(/C=N/N5CCN(C)CC5)c(O)c4c3C2=O)NC(=O)/C(C)=C\C=C\[C@H](C)[C@H](O)[C@@H](C)[C@@H](O)[C@@H](C)[C@H](OC(C)=O)[C@@H]1C [rifampicin, reference compound]
- AUC(0-t) ([1]; mouse, plasma, rifampicin co-administered with pyrazinamide, experiment 2, read-out: Plasma AUC0–24 h): 68.5 µg·h/mL
- AUC0–24 h [2]: 87,200–142,100 ng·h/mL

Structure (SMILES): Cc1csc([C@](C)(O)c2nnc(Nc3ccn(Cc4csc(C)n4)n3)s2)n1 [GSK693]
- MIC90 [3]: 1.87 µM (≈ 0.785 µg/mL)
- exposure needed to achieve the maximum effect in monotherapy in the acute infection model [4]: 110,200 ng·h/mL
- additional reduction of lung CFU counts on addition to RZ (M. tuberculosis H37Rv; experiment 1, 300 mg/kg, week 8): 1.44 log
- additive effect when combined with sutezolid, linezolid, or pretomanid (lung CFU) (M. tuberculosis H37Rv; experiment 1, GSK693 300 mg/kg): No additive effect
- reduction of lung CFU counts (M. tuberculosis H37Rv; experiment 1, 4 weeks of treatment): 1.34 log10
- reduction of lung CFU counts (M. tuberculosis H37Rv; experiment 1, 8 weeks of treatment): 2.33 log10
- additional reduction of lung CFU counts on addition to RZ (M. tuberculosis H37Rv; experiment 2, 100 mg/kg, 8 weeks): 1.17 log
- additional reduction of lung CFU counts on addition to RZ (M. tuberculosis H37Rv; experiment 2, 200 mg/kg, 8 weeks): 1.28 log
- additional reduction of lung CFU counts on addition to RZ (M. tuberculosis H37Rv; experiment 2, 300 mg/kg, 8 weeks): 0.76 log
- activity of the combination with RZ vs RZ alone or RZ with isoniazid (M. tuberculosis H37Rv; mouse, in vivo): significantly more active
- effect on the activity of the RZ combination (M. tuberculosis H37Rv; mouse, in vivo): significantly enhanced
- efficacy in combination with pretomanid and pyrazinamide compared with moxifloxacin (M. tuberculosis H37Rv; mouse, in vivo, 300 mg/kg): nor was it as effective as moxifloxacin
- Plasma AUC0–24 h ([1]; 100 mg/kg): 12,867 ng·h/mL
- Blood AUC0–24 h ([1]; 100 mg/kg): 23,032 ng·h/mL
- Plasma AUC0–24 h ([1]; 200 mg/kg): 27,337 ng·h/mL
- Blood AUC0–24 h ([1]; 200 mg/kg): 48,933 ng·h/mL
- Plasma AUC0–24 h ([1]; 300 mg/kg): 64,866 ng·h/mL
- Blood AUC0–24 h ([1]; 300 mg/kg): 116,110 ng·h/mL

Structure (SMILES): COc1c(N2C[C@@H]3CCCN[C@@H]3C2)c(F)cc2c(=O)c(C(=O)O)cn(C3CC3)c12 [moxifloxacin, reference compound]
- effect of addition to BPaL on bactericidal activity (M. tuberculosis H37Rv; 4 weeks of treatment): trend toward enhanced activity
